Reference: patent US9676774B2, “Compounds and compositions for treatment of cancer” (Sunesis Pharmaceuticals, Inc., priority 2006, dated 2017)
pIC50: −log10 of the molar value.

How the values were obtained:
HCT-116 cells = assay: MTT cell viability (cytotoxicity) assay in HCT-116 cells; assay type: cell-based; conditions: Homo sapiens, 72 hours incubation, highest concentration 5 μM, read-out: IC50 (reduced cell viability)
Description: MTT Dye Solution: 5 mg/mL MTT dye (Sigma #M2128) in sterile PBS, filter sterilized, stored at 4° C. in a dark bottle no longer than 1 month.
Lysis Buffer: 50% N,N-dimethyl formamide (Aldich #31,993-7) in dH20, 20% w/v lauryl sulfate (added with stirring at 37° C.) (Sigma #L4509), adjusted pH to 4.7 with 2.5% of 80% acetic acid (Fisher #A490-212) and 2.5% 1 N HCl (Spectrum #HY105).
Supplemented RPMI media: 500 mL RPMI (Cellgro #10-040-CV), 10% FBS (Cellgro #35-011CV) and 1% Sodium Bicarbonate solution (Cellgro @35-035-CI), 1% Antibotic Solution (100× stock; Cellgro #30-004CI).
HCT-116 cells were purchased from ATTC (#CCL-247).
Background: No cells, Totals: Cells treated with DMSO only
96-well tissue culture-treated flat bottom plates (Costar #3595) were plated with 4000 trypsinized cells in 100 μL/well and incubated overnight. 100× stock concentrations of compounds were prepared in DMSO and serially diluted two-fold in DMSO in a 96-well polypropylene v-bottom plate (Costar #3363). 5 μL of DMSO dilutions were then added to 45 μL supplemented RPMI, and 10 μL/well of this mixture were added to plates containing HCT-116 cells. The highest concentration of compounds was 5 μM. Plates were incubated for 72 hours at 37° C. in an incubator (5% CO2).
After incubation, 20 μL of MTT solution were added to each well and incubated at 37° C. for 1.5 hour. 100 μL lysis buffer was then added and plates were incubated for 48 hours at 37° C. Cell viability was then recorded by absorbance at 595 nm using a Biorad Benchmark Microplate Reader. The fraction of dead cells was determined by Fraction of Dead cells=Absorbance of sample well−Avg(no cell control)/Avg(Absorbance of DMSO only Control)−Avg(no cell control).

[1] = In vitro reaction of SNS-595 with pooled human liver microsomes (product identification); assay type: in vitro ADME; conditions: for product formed from SNS-595 in liver microsomes: human liver microsomes 1 mg/mL, 10 or 100 μM SNS-595, 60 min, 37° C., NADPH
Description: The in vitro production of N-Desmethyl SNS-595 from SNS-595 was monitored as described herein. The pooled Human Liver Microsomes were obtained from BD Gentest and NADPH was obtained from Sigma.
The in vitro reactions were performed (a) in the presence of NADPH as a cofactor and (b) in the absence of NADPH to identify any SNS-595 derivatives generated by cofactor independent mechanisms.
The reaction mixture constituted 100 mM Sodium Phosphate buffer, pH 7.4, containing 3.3 mM MgCl2, 1 mg/mL liver microsomal protein, 10 or 100 μM SNS-595, and 1 mM NADPH for reaction with NADPH. In both the NADPH plus and minus reactions, SNS-595 was added to the reaction mixture and allowed to equilibrate to 37° C. for 10 minutes before starting the reaction by adding NADPH or an equivalent volume of buffer. Reactions were performed in a volume of 1 mL in 2 mL 96-well polypropylene assay blocks. The reaction was stopped by adding an equal volume of acetonitrile at both 0 and 60 minutes after initiating the reaction. Samples were placed on ice until centrifugation at 4100 g for 10 minutes to remove proteins for subsequent analysis.
SNS-595 and the reaction products were identified on an API 4000 mass spectrometer coupled to a turbo electro spray ionization source. Prior to MS analysis chromatography was performed to achieve separation of the reaction precuts (N-desmethyl-SNS-595 had the […] SNS-595). The HPLC system consisted of an Agilent 1100 binary pump and single wavelength UV/Vis as a detector, and a Phenomenex Synergi Hydro-RP column (150×2 mm, 4 micron, 80 Å particle size). Following column separation, UV spectra were collected at 350 nm before mass spectral analysis. Mass spectral identification of the reaction products was done using a series of three experiments; MS full scan, product ion scans on all reaction products identified in the MS full scan analysis as well as multiple reaction monitoring (MRM) or product ion scans on theoretically possible reaction products. […]

SMILES	pIC50 (HCT-116 cells)	product formed from SNS-595 in liver microsomes [1]	product detectable after incubation of SNS-595 in liver microsomes ([1]; human liver microsomes, 10 μM incubation concentration of SNS-595)
CO[C@H]1CN(c2ccc3c(=O)c(C(=O)O)cn(-c4nccs4)c3n2)C[C@@H]1N [N-desmethyl-SNS-595, (+)-1,4-dihydro-7-[(3S,4S)-3-methoxy-4-amino-1-pyrrolidinyl]-4-oxo-1-(2-thiazolyl)-1,8-naphthyridine-3-carboxylic acid]	6.29	predominant product formed	only product detectable
CN[C@H]1CN(c2ccc3c(=O)c(C(=O)O)cn(-c4nccs4)c3n2)C[C@@H]1O [O-desmethyl-SNS-595, (+)-1,4-dihydro-7-[(3S,4S)-3-hydroxy-4-methylamino-1-pyrrolidinyl]-4-oxo-1-(2-thiazolyl)-1,8-naphthyridine-3-carboxylic acid]	< 5.30	second product formed	
CN[C@H]1CN(c2ccc3c(=O)c(C(=O)O)cn(-c4nccs4)c3n2)C[C@@H]1OC [SNS-595, (+)-1,4-dihydro-7-[(3S,4S)-3-methoxy-4-(methylamino)-1-pyrrolidinyl]-4-oxo-1-(2-thiazolyl)-1,8-naphthyridine-3-carboxylic acid]	6.37		
